Test results taken from patent publication US9029359B2, “Heteroaryl Btk inhibitors” (Biogen Idec MA, Inc., priority 2009, dated 2015).

Target: T1, BTK (Homo sapiens, UniProt Q06187)
T1 construct: purchased Upstate 14-552
Assay: In vitro BTK kinase assay: BTK-POLYGAT-LS ASSAY
Type: biochemical
Conditions: ATP 10 uM
Description: In vitro BTK kinase assay: BTK-POLYGAT-LS ASSAY. The purpose of the BTK in vitro assay is to determine compound potency against BTK through the measurement of IC50. […] A 24 μL aliquot of a ATP/peptide master mix (final concentration; ATP 10 μM, polyGAT 100 nM) in kinase buffer (10 mM Tris-HCl pH 7.5, 10 mM MgCl2, 200 μM Na3VO4, 5 mM DTT, 0.01% Triton X-100, and 0.2 mg/ml Casein) is added to each well. […] The assay is incubated for 30 minutes before being stopped with 28 μL of a 50 mM EDTA solution. […] The plate is covered and incubated for 45 minutes at room temperature. Time resolved fluorescence (TRF) on Molecular Devices M5 (332 nm excitation; 488 nm emission; 518 nm fluorescein emission) is measured.

T1 sequence (Q06187 whole entry): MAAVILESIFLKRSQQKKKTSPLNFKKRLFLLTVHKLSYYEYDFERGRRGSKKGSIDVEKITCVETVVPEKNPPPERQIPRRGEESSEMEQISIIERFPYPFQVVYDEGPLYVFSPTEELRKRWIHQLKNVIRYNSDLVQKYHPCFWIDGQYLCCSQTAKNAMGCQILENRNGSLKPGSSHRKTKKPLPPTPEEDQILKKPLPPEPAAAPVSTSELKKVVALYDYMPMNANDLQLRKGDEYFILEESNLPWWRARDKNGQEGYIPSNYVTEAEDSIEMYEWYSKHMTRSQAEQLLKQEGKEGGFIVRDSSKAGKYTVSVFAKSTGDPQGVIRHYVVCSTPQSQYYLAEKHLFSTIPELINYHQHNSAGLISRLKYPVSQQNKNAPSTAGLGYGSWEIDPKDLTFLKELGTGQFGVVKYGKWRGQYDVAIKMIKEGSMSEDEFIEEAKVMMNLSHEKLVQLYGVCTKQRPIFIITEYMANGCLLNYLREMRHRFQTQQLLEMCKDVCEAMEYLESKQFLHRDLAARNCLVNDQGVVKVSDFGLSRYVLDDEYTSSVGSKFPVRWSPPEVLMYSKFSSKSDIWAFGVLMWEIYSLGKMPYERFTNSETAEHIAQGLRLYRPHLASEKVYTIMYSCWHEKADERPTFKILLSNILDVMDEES

| IC50 [nM] | SMILES |
| --- | --- |
| < 100 | O=C(CNc1cccc2ccccc12)NC1CCCN(c2ncnc3[nH]ccc23)C1 (centres unmarked) [Example 46, (N-(1-(7H-pyrrolo[2,3-d]pyrimidin-4-yl)piperidin-3-yl)-2-(naphthalen-1-ylamino)acetamide)] |
| < 100 | CCN(C)S(=O)(=O)c1ccccc1NCC(=O)N[C@@H]1CCCN(c2ncnc3[nH]ncc23)C1 [Example 213] |
| < 100 | CC(C)[C@@H](Nc1cccc(Cl)c1)C(=O)N[C@@H]1CCCN(c2ncnc3[nH]ccc23)C1 [Example 112, (R)—N—((R)-1-(7H-pyrrolo[2,3-d]pyrimidin-4-yl)piperidin-3-yl)-2-(3-chlorophenylamino)-3-methylbutanamide] |
| > 10000 | Cc1cc(NCC(=O)NC2CCCN(c3ncnc4[nH]ccc34)C2)on1 (centres unmarked) [Example 350] |
| 1000 to 10000 | Cn1nc(C(C)(C)C)cc1NCC(=O)NC1CCCN(c2ncnc3[nH]ccc23)C1 (centres unmarked) [Example 57, (N-(1-(7H-pyrrolo[2,3-d]pyrimidin-4-yl)piperidin-3-yl)-2-(3-ten-butyl-1-methyl-1H-pyrazol-5-ylamino)acetamide)] |
| 1000 to 10000 | O=C(CNc1cccc(CO)c1)N[C@@H]1CCCN(c2ncnc3[nH]ccc23)C1 [Example 394] |
| 1000 to 10000 | O=C(N[C@@H]1CCCN(c2ncnc3[nH]ccc23)C1)C(CC(F)(F)F)Nc1ccccc1 (stereo partly drawn) [Example 123, (N—((R)-1-(7H-pyrrolo[2,3-d]pyrimidin-4-yl)piperidin-3-yl)-4,4,4-trifluoro-2-(phenylamino)butanamide)] |
| < 100 | O=C(NC1CN(c2ncnc3[nH]ncc23)CCC1c1ccccc1)[C@H](Nc1cc(F)cc(Cl)c1)C1CC1 (stereo partly drawn) [Example 149, (R)-2-(3-chloro-5-fluorophenylamino)-2-cyclopropyl-N-(4-phenyl-1-(1H-pyrazolo[3,4-d]pyrimidin-4-yl)piperidin-3-yl)acetamide] |
| 100 to 999 | O=C(CNc1ccc(F)c(F)c1F)N[C@@H]1CCCN(c2ncnc3[nH]ccc23)C1 [Example 445] |
| 100 to 999 | O=C(N[C@@H]1CCCN(c2ncnc3[nH]ccc23)C1)[C@@H](CC1CC1)Nc1cc(Cl)cc(Cl)c1 [Example 132, (R)—N—((R)-1-(7H-pyrrolo[2,3-d]pyrimidin-4-yl)piperidin-3-yl)-3-cyclopropyl-2-(3,5-dichlorophenylamino)propanamide] |
| < 100 | CC[C@@H](Nc1cccc(Cl)c1)C(=O)N[C@@H]1CCCN(c2ncnc3[nH]ncc23)C1 [Example 131, (R)—N—((R)-1-(1H-pyrazolo[3,4-d]pyrimidin-4-yl)piperidin-3-yl)-2-(3-chlorophenylamino)butanamide] |
| 100 to 999 | CC[C@@H](Nc1ccccc1C(C)C)C(=O)N[C@@H]1CCCN(c2ncnc3[nH]ncc23)C1 [Example 294] |
| 1000 to 10000 | O=C(CNc1cccc([N+](=O)[O-])c1)N[C@@H]1CCCN(c2ncnc3[nH]ccc23)C1 [Example 432] |
| 1000 to 10000 | O=C(N[C@@H]1CCCN(c2ncnc3[nH]ccc23)C1)[C@H](Nc1ccccc1)C1CCCCC1 [Example 109, (R)—N—((R)-1-(7H-pyrrolo[2,3-d]pyrimidin-4-yl)piperidin-3-yl)-2-cyclohexyl-2-(phenylamino)acetamide] |
| 100 to 999 | Cc1ccc(Cl)c(NCC(=O)N[C@@H]2CCCN(c3ncnc4[nH]ccc34)C2)c1 [Example 313] |
| < 100 | CCCCOc1ccccc1NCC(=O)N[C@@H]1CCCN(c2ncnc3[nH]ccc23)C1 [Example 199] |
| > 10000 | C[C@H](Nc1ccccc1)C(=O)NC1CCCN(c2ncnc3[nH]ccc23)C1 (stereo partly drawn) [Example 102, (2S)—N-(1-(7H-pyrrolo[2,3-d]pyrimidin-4-yl)piperidin-3-yl)-2-(phenylamino)propanamide] |
| 1000 to 10000 | Cn1ncc2c(NCC(=O)NC3CCCN(c4ncnc5[nH]ccc45)C3)cccc21 (centres unmarked) [Example 78, (N-(1-(7H-pyrrolo[2,3-d]pyrimidin-4-yl)piperidin-3-yl)-2-(1-methyl-1H-indazol-4-ylamino)acetamide)] |
| < 100 | O=C(CNc1cccc2c1OC(F)(F)O2)NC1CCCN(c2ncnc3[nH]ccc23)C1 (centres unmarked) [Example 25, (N-(1-(7H-pyrrolo[2,3-d]pyrimidin-4-yl)piperidin-3-yl)-2-(2,2-difluorobenzo[d][1,3]dioxol-4-ylamino)acetamide)] |
| 1000 to 10000 | O=C(CNc1ccccc1)N(CC1CCCCC1)C1CCCN(c2ncnc3[nH]ccc23)C1 (centres unmarked) [Example 88, (N-(1-(7H-pyrrolo[2,3-d]pyrimidin-4-yl)piperidin-3-yl)-N-(cyclohexylmethyl)-2-(phenylamino)acetamide)] |
| 1000 to 10000 | N#Cc1c(F)cccc1NCC(=O)N[C@@H]1CCCN(c2ncnc3[nH]ccc23)C1 [Example 409] |
| 100 to 999 | CC(C)c1ccccc1N[C@@H](C(=O)N[C@@H]1CCCN(c2ncnc3[nH]ccc23)C1)C1CC1 [Example 284] |
| 100 to 999 | O=C(CNc1ccc(F)c(F)c1)NC1CCCN(c2ncnc3[nH]ccc23)C1 (centres unmarked) [Example 62, (N-(1-(7H-pyrrolo[2,3-d]pyrimidin-4-yl)piperidin-3-yl)-2-(3,4-difluorophenylamino)acetamide)] |
| 1000 to 10000 | O=C([C@H](Nc1cc(F)cc(Cl)c1)C1CC1)N1CCCCC12CCCN(c1ncnc3[nH]ncc13)C2 (some centres unmarked) [Example 373] |
| > 10000 | O=C(NC1CCCN(c2ncnc3[nH]ccc23)C1)C1NCc2ccccc21 (centres unmarked) [Example 361] |
| 1000 to 10000 | O=C(N[C@@H]1CCCN(c2ncnc3[nH]ccc23)C1)C(Nc1cc(F)cc(Cl)c1)C1COC1 (some centres unmarked) [Example 387] |
| 100 to 999 | O=C(CNc1ccccc1C(=O)N1CCCCC1)N[C@@H]1CCCN(c2ncnc3[nH]ccc23)C1 [Example 253] |

| IC50 [nM] | SMILES |
| --- | --- |
| 1000 to 10000 | O=C(NC1CCCN(c2ncnc3[nH]ccc23)C1)c1cc2ccccc2[nH]1 (centres unmarked) [Example 362] |
| 100 to 999 | CC[C@@H](C)[C@@H](Nc1ccccc1)C(=O)N[C@@H]1CCCN(c2ncnc3[nH]ccc23)C1 [Example 117, (2R,3R)—N—((R)-1-(7H-pyrrolo[2,3-d]pyrimidin-4-yl)piperidin-3-yl)-3-methyl-2-(phenylamino)pentanamide] |
| 100 to 999 | O=C(CNc1ccccc1F)NC1CCCN(c2ncnc3[nH]ccc23)C1 (centres unmarked) [Example 23, (N-(1-(7H-pyrrolo[2,3-d]pyrimidin-4-yl)piperidin-3-yl)-2-(2-fluorophenylamino)acetamide)] |
| < 100 | C[C@@H](Nc1cccc(Cl)c1)C(=O)N[C@@H]1CCCN(c2ncnc3[nH]ccc23)C1 [Example 238] |
| 1000 to 10000 | O=C(CNc1cccc(N2CCCCC2)c1)N[C@@H]1CCCN(c2ncnc3[nH]ccc23)C1 [Example 429] |
| < 100 | O=C(CNc1ccccc1S(=O)(=O)N1CC2CCCC2C1)N[C@@H]1CCCN(c2ncnc3[nH]ncc23)C1 (some centres unmarked) [Example 227] |
| 1000 to 10000 | N#Cc1ccccc1NCC(=O)N[C@@H]1CCCN(c2ncnc3[nH]ccc23)C1 [Example 433] |
| < 100 | O=C(CNc1ccccc1Cl)N[C@@H]1CCCN(c2ncnc3[nH]ccc23)C1 [Example 236] |
| 100 to 999 | O=C(CNc1ccc(F)c(I)c1)N[C@@H]1CCCN(c2ncnc3[nH]ccc23)C1 [Example 275] |
| 1000 to 10000 | O=C(CNC(Cc1ccccc1)c1ccccc1)N[C@@H]1CCCN(c2ncnc3[nH]ccc23)C1 (some centres unmarked) [Example 431] |
| 100 to 999 | Cc1cc(Cl)ccc1NCC(=O)N[C@@H]1CCCN(c2ncnc3[nH]ccc23)C1 [Example 419] |
| < 100 | Cc1cc(NCC(=O)N[C@@H]2CCCN(c3ncnc4[nH]ccc34)C2)cc(OC(F)(F)F)c1 [Example 382] |
| 1000 to 10000 | CN(CC(=O)NC1CCCN(c2ncnc3[nH]ccc23)C1)c1ccccc1 (centres unmarked) [Example 16, (N-(1-(7H-pyrrolo[2,3-d]pyrimidin-4-yl)piperidin-3-yl)-2-(methyl(phenyl)amino)acetamide)] |
| 100 to 999 | Cc1ccc(NCC(=O)N[C@@H]2CCCN(c3ncnc4[nH]ccc34)C2)cc1F [Example 293] |
| 100 to 999 | O=C(N[C@@H](C(=O)N[C@@H]1CCCN(c2ncnc3[nH]ccc23)C1)C1CC1)c1ccccc1O [Example 230] |
| 100 to 999 | CCOc1cccc(NCC(=O)N[C@@H]2CCCN(c3ncnc4[nH]ccc34)C2)c1 [Example 316] |
| 1000 to 10000 | O=C(CNc1cccc(-n2cncn2)c1)N[C@@H]1CCCN(c2ncnc3[nH]ccc23)C1 [Example 395] |
| 1000 to 10000 | N#Cc1c(N)ncnc1N1CCC[C@@H](NC(=O)[C@H](Nc2cc(F)cc(Cl)c2)C2CC2)C1 [Example 134, (R)—N—((R)-1-(6-amino-5-cyanopyrimidin-4-yl)piperidin-3-yl)-2-(3-chloro-5-fluorophenylamino)-2-cyclopropylacetamide] |
| < 100 | O=C(CNc1cc(Cl)cc(OC(F)(F)F)c1)N[C@@H]1CCCN(c2ncnc3[nH]ccc23)C1 [Example 383] |
| > 10000 | O=C(CNc1ccncc1)NC1CCCN(c2ncnc3[nH]ccc23)C1 (centres unmarked) [Example 353] |
| < 100 | O=C(N[C@@H]1CCCN(c2ncnc3[nH]ccc23)C1)[C@H](Nc1cccc(Cl)c1)C1CC1 [Example 119, (R)—N—((R)-1-(7H-pyrrolo[2,3-d]pyrimidin-4-yl)piperidin-3-yl)-2-(3-chlorophenylamino)-2-cyclopropylacetamide] |
| 100 to 999 | O=C(CNc1c(F)ccc(F)c1F)N[C@@H]1CCCN(c2ncnc3[nH]ccc23)C1 [Example 411] |
| 1000 to 10000 | O=C(N[C@@H]1CCCN(c2ncnc3[nH]ccc23)C1)[C@@H](CC1CC1)Nc1cc(F)cc(Cl)c1 [Example 393] |
| < 100 | O=C(NC1CCCCN(c2ncnc3[nH]ncc23)C1)[C@H](Nc1cc(F)cc(Cl)c1)C1CC1 (some centres unmarked) [Example 184] |
| > 10000 | O=C(CNc1ccccc1)NC1CCCN(c2ncnc3[nH]cc(Cl)c23)C1 (centres unmarked) [Example 462] |
| 1000 to 10000 | O=C([C@H](Nc1cc(F)cc(Cl)c1)C1CC1)N1CCCCC12CCCN(c1ncnc3[nH]ccc13)C2 (some centres unmarked) [Example 379] |
